Here are results for two compounds from US5330992A, “1-cyclopropyl-4-pyridyl-quinolinones” (priority 1992, dated 1994).

For one series, the target named is T1, human topoisomerase II (Homo sapiens, UniProt P11388).
T1 construct: Topo II was purified from late log phase suspension cultures of HeLa WIS; endogenous in cells; host or cells: HeLa WIS suspension cultures, late log phase (enzyme purified from the cells)
Put plainly: Mammalian Topoisomerase II Inhibition Assay (DNA-topo II complex formation). Format: biochemical. Conditions: EC50 = concentration with activity equal to EC50 of reference mAMSA; read-out: TopoII Inh. EC50. On the procedure: Mammalian Topoisomerase II Inhibition Assay Procedure
The assay quantitates the amount of topo II covalently complexed by DNA at equilibrium during a topo II reaction. This assay determines the potential of a compound to stabilize this complex, which potential is closely related to the cytotoxicity of the compound.
Assays (in duplicate) were assembled at 4° C.
4 ng 3' end labeled (^32 P) pBR322 DNA (10^7 DMP/μg)
The assay mix including the test compound was incubated for 20 minutes at 37° C. The reaction was terminated at 37° C. by the addition of 3 μl 10% SDS followed by the addition of 266 μl 10 mM Tris-Cl pH 7.5, 20 μg/ml BSA, 20 μg/ml calf thymus DNA, 1% SDS.
A SDS/protein precipitate was formed by the addition of 28 μl 2.5M KCl followed by chilling on ice for a minimum of 10 minutes. The precipitate was collected and washed with a Brandell cell harvester on a GFB glass fiber filter membrane as follows. The contents of the assay tube were drawn up into the harvester. The tube was then rinsed 7X with 10 mM Tris-Cl pH 7.5, 1 mM EDTA and 100 mM KCl. […] After drying, CPM was determined by liquid scintillation counting with 5 ml Biofluor (NEN Research Products) or Readisafe (Beckman Instruments Inc.) cocktail.
This solution then was diluted 1/5 into water and serially thereafter in either 0.02N sodium hydroxide or 0.04N hydrogen chloride, respectively. The stock solution and serial dilution of the test compound was stored at -20° C. prior to testing.
Screening of test compound--As an initial screen, the test compound was tested at a final concentration of 2, 20 and 200 μg/ml. The compound was then retested at a range of concentrations (usually 2-3X steps) bridging their approximate EC50 's, as estimated by the prescreen.
Controls--A solvent control which indicates the base level of topo II-DNA complex formed in the absence of the test compound was included in each test. A control, in which topo II was omitted, was included for each test compound at the highest drug concentration tested.
Reference Agent--A dose response curve with mAMSA at 0.01, 0.08, 0.16, 0.32, 1.0 and 10 μg/ml was included in each test.
The maximal DNA-topo II complex formed is taken as that equal to that formed at the nearly saturating dose of mAMSA (10 μg/ml).

Series [1] has as its system adriamycin-resistant subline Mam16C/ADR. Put plainly: In vivo antitumor assay, Mam16C/ADR. On the set-up: species or system mouse. The conditions noted are these: drug route iv, qd 1 bid 2,3. The text has this:
(§1) Mice: Inbred: C3H/He and NCR-nu; and Hybrids: B6D2Fl (C57BL/6 females X DBA/2 males, CD2Fl (Balb/c females X DBS/2 males) and B6x C3fl (C57BL/6 x C3H) were bred at Wayne State University from strained obtained from the Frederick Cancer Research Facility, Frederick, Md. or purchased from commercial suppliers.
(§2) Tumors: Murine Tumor: P388 and an adriamycin-resistant (ADR) subline P388/ADR leukemia and the following transplantable solid tumors of mice were used for in Vivo testing: B16 melanoma (B16), pancreatic ductal adenocarcinoma No. 03 (Panc 03), colon adenocarcinoma No. 38 (colo 38), mammary ductal adenocarcinoma No. 16/C (Mam16) and an adriamycin-resistantsubline Mam16C/ADR. […]
(§3) Quantitative end points used assess antitumor activity included % Increased Life Span (% ILS), Tumor Cell Kill (Log10 kill), and Tumor Growth Inhibition (T/C). […]
(§4) Tumors were measured with a caliper once or twice weekly (as needed) until either tumors exceeded 1600 mg or cure was assured. […] When the control group tumors reached approximately 750-1500 mg in size (median of group), the median tumor weight of each group was determined (including zeros). […] The % T/C was calculated from the following formula for solid murine tumor models: [formula] where T and C are median tumor weights of the treatment and control groups, respectively. […]

Series [2] in a line: In vivo antitumor assay, Mam16C/ADR. On the set-up: species or system mouse. Conditions: mouse, in vivo, drug route iv, qd 1 bid 2,3.
From the text: as §1, §2, §3, §4

As usually defined, the EC50 is the concentration giving half of the maximal effect.

T1 sequence (P11388 whole entry): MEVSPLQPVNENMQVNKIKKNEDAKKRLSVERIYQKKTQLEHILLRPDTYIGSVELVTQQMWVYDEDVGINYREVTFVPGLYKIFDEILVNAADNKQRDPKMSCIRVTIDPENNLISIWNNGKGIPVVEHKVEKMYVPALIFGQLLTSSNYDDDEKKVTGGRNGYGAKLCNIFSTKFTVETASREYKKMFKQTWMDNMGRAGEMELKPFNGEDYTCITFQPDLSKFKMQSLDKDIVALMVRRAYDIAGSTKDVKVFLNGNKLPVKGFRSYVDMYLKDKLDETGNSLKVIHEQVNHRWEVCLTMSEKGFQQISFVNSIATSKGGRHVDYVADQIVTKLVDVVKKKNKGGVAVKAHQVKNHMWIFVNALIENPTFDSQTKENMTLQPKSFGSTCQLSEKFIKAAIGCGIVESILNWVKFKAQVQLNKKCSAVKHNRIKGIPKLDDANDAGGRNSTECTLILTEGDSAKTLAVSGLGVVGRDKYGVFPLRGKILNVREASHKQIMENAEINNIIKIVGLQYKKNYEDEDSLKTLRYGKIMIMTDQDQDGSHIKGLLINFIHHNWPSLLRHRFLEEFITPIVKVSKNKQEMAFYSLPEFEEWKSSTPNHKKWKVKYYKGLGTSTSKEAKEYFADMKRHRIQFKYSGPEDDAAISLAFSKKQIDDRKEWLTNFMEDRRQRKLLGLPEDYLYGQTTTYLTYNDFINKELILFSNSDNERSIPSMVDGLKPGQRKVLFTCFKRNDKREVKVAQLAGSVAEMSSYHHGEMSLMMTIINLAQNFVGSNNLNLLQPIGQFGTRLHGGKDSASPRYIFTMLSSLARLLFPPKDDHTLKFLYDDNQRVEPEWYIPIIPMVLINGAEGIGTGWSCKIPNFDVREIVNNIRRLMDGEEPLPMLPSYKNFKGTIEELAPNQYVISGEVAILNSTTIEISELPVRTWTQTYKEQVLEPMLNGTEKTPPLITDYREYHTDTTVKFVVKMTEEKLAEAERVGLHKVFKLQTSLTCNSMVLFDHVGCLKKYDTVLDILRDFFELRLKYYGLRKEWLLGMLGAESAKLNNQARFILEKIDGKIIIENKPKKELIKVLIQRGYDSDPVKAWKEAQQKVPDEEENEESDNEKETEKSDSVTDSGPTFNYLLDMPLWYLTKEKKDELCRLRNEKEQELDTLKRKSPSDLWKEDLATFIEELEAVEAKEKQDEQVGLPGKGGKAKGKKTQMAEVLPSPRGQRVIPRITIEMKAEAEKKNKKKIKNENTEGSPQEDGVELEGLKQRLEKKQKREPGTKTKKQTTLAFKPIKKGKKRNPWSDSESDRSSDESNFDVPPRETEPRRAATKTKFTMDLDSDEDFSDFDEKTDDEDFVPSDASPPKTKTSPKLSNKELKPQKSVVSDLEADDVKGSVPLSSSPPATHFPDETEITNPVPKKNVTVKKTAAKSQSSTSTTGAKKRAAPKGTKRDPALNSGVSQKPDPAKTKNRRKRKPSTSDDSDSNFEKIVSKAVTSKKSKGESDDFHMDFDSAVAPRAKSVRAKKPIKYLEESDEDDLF

Regarding `Cc1cc(-c2c(F)cc3c(=O)c(Cc4c(O)cccc4O)cn(C4CC4)c3c2F)cc(C)n1` [Example 26, 1-Cyclopropyl-6,8-difluoro-7-[2,6-dimethyl-4-pyridinyl]-3-[2,6-dihydroxyphenylmethyl]-1,4-dihydroquinoline-4-one], on human topoisomerase II, the EC50 was determined as 96 nM. In series [1], this compound came in with a T/C % of 71%. Besides, in series [2], the MTD was found to be 30 mg/kg.
On to `Cc1cc(-c2c(F)cc3c(=O)c(Cc4ccccc4O)cn(C4CC4)c3c2F)cc(C)n1` [Example 30], for which, on human topoisomerase II, the EC50 was 330 nM.
